{
  "source": "patent US20190018003A1",
  "about": "“TUMOR DISCRIMINATION METHOD, DIAGNOSTIC AGENT FOR TUMOR, AND SENSITIZER FOR TUMOR DIAGNOSIS” (TOTO LTD., priority 2017, published 2019)",
  "system": "T24 urinary bladder cancer cells",
  "experiment": "Fluorescence enhancement in T24 cells by separate administration of hypericin and particles",
  "assay_type": "cell-based, human",
  "settings": "Example 9, fluorescent dye = hypericin 1 μmol/l 1 h, then particles 0.001 w/v % 2 h, immediately after observation light irradiation",
  "method": "A solution (100 mmol/l) of hypericin (FUJIFILM Wako Pure Chemical Corporation) in dimethyl sulfoxide (FUJIFILM Wako Pure Chemical Corporation) as a solvent was mixed into an MEM medium (MEM, GlutaMAX™ supplement (Thermo Fisher Scientific)) to form a 1 μmol/l hypericin solution. Further, an aqueous solution of light scattering particles (2) (ii) was mixed into an MEM medium to form a 0.001 w/v % light scattering particle solution. Evaluation was performed as follows. The medium of the T24 cells on a 6-well plate, obtained in Example 3, was removed by an aspirator, and thereto was added 2 ml of MEM medium (Thermo Fisher Scientific). Once again, the MEM medium was removed by an aspirator, thereto was added 2 ml of hypericin solution, and the system was cultured under conditions of 3TC and 5 v/v % CO2 for 1 hour. Then, the hypericin solution of the cells on the 6-well plate was removed by an aspirator, to the residue was added 2 ml of the light scattering particle solution, and the system was cultured under conditions of 3TC and 5 v/v % CO2 for 2 hours. […] Detection of fluorescence was performed in the same manner as in Example 5 by using an inverted fluorescence microscope and, from the images acquired, fluorescence intensities were obtained and relative fluorescence intensities were calculated.",
  "data": [
    {"smiles": "Cc1cc(O)c2c(=O)c3c(O)cc(O)c4c5c(O)cc(O)c6c(=O)c7c(O)cc(C)c8c1c2c(c34)c(c78)c65", "note": "[hypericin]", "values": [
      {"measurement": "Relative fluorescence intensity", "result": 1.0}
    ]}
  ]
}
